Source: patent US20250129021A1, “SMALL MOLECULE PROTEIN SYNTHESIS MODULATORS” (Interdict Bio, Inc., priority 2023, published 2025)
pIC50: −log10 of the molar value.

Experiments:
Assay type in all cases: biochemical
Settings in all cases: HeLa S3 lysate, sfGFP/mCherry ratio, 2 hrs at 30° C.
[1] = test system: BCL-2; assay: In vitro transcription-translation (IVTT) assay, BCL-2 reporter
Excerpt: All reporter constructs have been cloned into the pT7CFE1-CHis plasmid (ThermoFisher #88860) using Gibson assembly procedures (NEB #E2611L). The parental pT7CFE1-CHis plasmid contains an EMCV IRES at the 5′UTR for translation initiation, a multiple-cloning site (MCS) for gene insertion, an optional C-terminal His-epitope tag, and polyA sequence in the 3′UTR to regulate mRNA stability. All reporters are designed to be inserted at the MCS to include a red fluorescent protein (mCherry), P2A self-cleaving peptide which releases the preceding mCherry protein product, and a fusion open reading frame containing a 3×FLAG epitope, a peptide sequence of interest (TEST), and green fluorescent protein (sfGFP).
Construct Plasmid Preparation: All plasmids are isolated from MACH1 cells (ThermoFisher) grown overnight in ampicillin-containing luria broth, and purified using ZymoPure Express Plasmid Midiprep Kit (Zymo Research). Constructs are sequenced verified and diluted to a working concentration of 110 ng/μL.
HeLa S3 Lysate Preparation: HeLa S3 cell pellets are acquired from Ipracell/Ipratech (Belgium) and shipped as 4 mL frozen cell pellets on dry ice for storage at −80° C. until use. The procedure for lysate preparation is as follows. Prepare 1× Lysis Buffer, cold and stored on ice:
Each preparation takes 8 cell pellets (4 ml packed volume each, approximately 1.0×10^9 cells per pellet). Thaw cell pellets from −80° C. on ice for 90 mins. Lay pellets horizontally on top of the ice and rotate every 30 mins to ensure even thawing. Once thawed, add 4 mL of cold lysis buffer to each pellet, and using a serological pipet, gently pipet up and down to break up clumps. Incubate resuspended cells in ice for an additional 30 mins (plunged into ice). During 30 min incubation, rinse and RNase-zap (Ambion) glass dounces (use loose pestle “A”), gently dry and place on ice until needed. Prepare RNase-free Eppendorf tubes for spinning and for batch storage. Add batch labels to 1.5-1.7 mL RNase-free microcentrifuge tubes (labeling scheme below). Each batch will have an extra 1.5-1.7 mL RNase-free microcentrifuge tube for 40 μL of lysate, label the top of this tube (labeling scheme below). After 30 min incubation, transfer all 8 mL of cell pellet to dounce. Cell lysis is complete after douncing 100 times. Aliquot cell lysis into 1.5-1.7 mL temporary-microcentrifuge tubes. Place tubes in centrifuge with “fins” out, and spin at 1,200×g for 5 mins. After the first spin use a 1 mL pipet to resuspend each tube and repeat spin. This acts as an additional lysis step, is more vigorous and increases lysate yield. During second spin get liquid N2 and a fresh conical tube on ice. After spin is complete, transfer supernatant (lysate) from microcentrifuge tubes into the 50 mL conical tube and keep on ice. Repeat steps 10-14 for all other cell pellets until completed. Once all cell lysate has been transferred to the 50 mL conical tube pipet to mix so the solution is homogenous. Transfer 1 mL of lysate into batch-labeled microcentrifuge tubes and flash freeze in liquid nitrogen. Be sure to pipet up and down to mix throughout transfer step. Place all tubes in the […] for long-term storage.
In vitro transcription-translation assay setup: Each assay includes a master mix containing lysate and shared components, a 96-well plate containing compound titrations for testing, a 96-well DNA plate with reporter constructs to be tested, 96-well skirted PCR plates, and 96-well flat-bottom, black, fluorescent assay plates. […]

[2] = test system: CCND1; assay: In vitro transcription-translation (IVTT) assay, CCND1 reporter
Outline: (§1)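 Reporter: mCherry, P2A, then 3×FLAG-target peptide-sfGFP fusion, IRES-initiated; HeLa S3 lysate IVTT; cpd dilutions 30 μM−0.1 μM half-log in 100% DMSO (dilution-plate conc); DNA added last; 2 h, 30° C; PBS quench.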

[3] = test system: MYC; assay: In vitro transcription-translation (IVTT) assay, MYC reporter
Outline: as §1

[4] = test system: MCL-1; assay: In vitro transcription-translation (IVTT) assay, MCL-1 reporter
Outline: as §1

| pIC50 [1] | pIC50 [2] | pIC50 [3] | pIC50 [4] | Compound |
| --- | --- | --- | --- | --- |
| > 5.00 | > 5.00 | > 5.00 | > 5.00 | COc1ccc(C[C@H]2NC[C@H](O)[C@H]2OC(=O)NCc2cc(Cl)[nH]n2)cc1 [Cmpd V187860] |
| 4.52 to 4.70 | < 4.52 | 4.70 to 5.00 | > 5.00 | COc1ccc(C[C@H]2NC[C@H](O)[C@H]2OC(=O)NCC(=O)N[C@@H](C)C(N)=O)cc1 [Cmpd V188022] |
| 4.70 to 5.00 | > 5.00 | > 5.00 | > 5.00 | COc1ccc(C[C@H]2NC[C@H](O)[C@H]2OC(=O)NNC(=O)c2ccccc2)cc1 [V187812, N′-({[(2R,3S,4S)-4-hydroxy-2-[(4-methoxyphenyl)methyl]pyrrolidin-3-yl]oxy}carbonyl)benzohydrazide] |
| < 4.52 | < 4.52 | < 4.52 | < 4.52 | COc1ccc(C[C@H]2NC[C@H](O)[C@H]2OC(=O)NCc2nc(Cl)c(Cl)[nH]2)cc1 [V187824, (2R,3S,4S)-4-hydroxy-2-[(4-methoxyphenyl)methyl]pyrrolidin-3-yl N-[(4,5-dichloro-1H-imidazol-2-yl)methyl]carbamate] |
| 4.52 to 4.70 | 4.70 to 5.00 | > 5.00 | > 5.00 | COc1ccc(C[C@H]2NC[C@H](O)[C@H]2OC(=O)NCCc2ccn(C)n2)cc1 [V187847, (2R,3S,4S)-4-hydroxy-2-[(4-methoxyphenyl)methyl]pyrrolidin-3-yl N-[2-(1-methylpyrazol-3-yl)ethyl]carbamate] |
| < 4.52 | < 4.52 | 4.70 to 5.00 | 4.70 to 5.00 | COc1ccc(C[C@H]2NC[C@H](O)[C@H]2OC(=O)NCc2ccc(I)cc2)cc1 [V187928, (2R,3S,4S)-4-hydroxy-2-[(4-methoxyphenyl)methyl]pyrrolidin-3-yl N-[(4-iodophenyl)methyl]carbamate] |
| < 4.52 | 4.52 to 4.70 | 4.52 to 4.70 | 4.52 to 4.70 | COc1ccc(C[C@H]2NC[C@H](O)[C@H]2OC(=O)NC[C@H]2CCCNC2)cc1 [V187930, (2R,3S,4S)-4-hydroxy-2-[(4-methoxyphenyl)methyl]pyrrolidin-3-yl N-[(3S)-piperidin-3-ylmethyl]carbamate] |

Further lines, the molecule ahead of its results:

| Compound | pIC50 [1] | pIC50 [2] | pIC50 [3] | pIC50 [4] |
| --- | --- | --- | --- | --- |
| COc1ccc(C[C@H]2NC[C@H](O)[C@H]2OC(=O)NCCNc2nc(N)nc3nc[nH]c23)cc1 [Cmpd V188056] | < 4.52 | < 4.52 | 4.52 to 4.70 | < 4.52 |
| COc1ccc(C[C@H]2NC[C@H](O)[C@H]2OC(=O)NCCc2cc(C)on2)cc1 [V187719, (2R,3S,4S)-4-hydroxy-2-[(4-methoxyphenyl)methyl]pyrrolidin-3-yl N-[2-(5-methyl-1,2-oxazol-3-yl)ethyl]carbamate] | 4.70 to 5.00 | > 5.00 | > 5.00 | > 5.00 |
| COc1ccc(C[C@H]2NC[C@H](O)[C@H]2OC(=O)NCC2(F)CNC2)cc1 [V187877, (2R,3S,4S)-4-hydroxy-2-[(4-methoxyphenyl)methyl]pyrrolidin-3-yl N-[(3-fluoroazetidine-3-yl)methyl]carbamate] | < 4.52 | < 4.52 | < 4.52 | < 4.52 |
| COc1ccc(C[C@H]2NC[C@H](O)[C@H]2OC(=O)NCc2cccnn2)cc1 [V187916, (2R,3S,4S)-4-hydroxy-2-[(4-methoxyphenyl)methyl]pyrrolidin-3-yl N-(pyridazin-3-ylmethyl)carbamate] | > 5.00 | > 5.00 | > 5.00 | > 5.00 |
| COc1ccc(C[C@H]2NC[C@H](O)[C@H]2OC(=O)NCCNC(=O)[C@@H]2CCCN2)cc1 [V188015, (2R,3S,4S)-4-hydroxy-2-[(4-methoxyphenyl)methyl]pyrrolidin-3-yl N-{2-[(2S)-pyrrolidin-2-ylformamido]ethyl}carbamate] | < 4.52 | 4.70 to 5.00 |  | 4.70 to 5.00 |
